Test results taken from US20250034182A1, “PHOSPHOLIPID COMPOUNDS AND METHODS OF MAKING AND USING THE SAME” (priority 2021, published 2025).
Read-outs that look alike come from different tables or passages of the source.

Columns and labels:
[1] = test system: HCV Replicon 1B; assay: HCV Replicon 1B EC50 (Example Q); assay type: cell-based; conditions: Hepatitis C virus, 72 h, read-out: HCV Replicon 1B EC50 (nM) (per Ex. Q)
Protocol: Compounds were serially diluted in ten steps of 1:3 dilutions in 384-well plates. All serial dilutions were performed in four replicates per compound within the same 384-well plate. An HCV protease inhibitor ITMN-191 at […] was added as a control of 100% inhibition of HCV replication while puromycin at 10 mM was included as a control of 100% cytotoxicity. To each well of a black polystyrene 384-well plate (Greiner Bio-one, Monroe, NC), 90 μL of cell culture medium (without Geneticin) containing 2000 suspended HCV replicon cells was added with a Biotek μFlow workstation. For compound transfer into cell culture plates, 0.4 μL of compound solution from the compound serial dilution plate was transferred to the cell culture plate on a Biomek FX workstation. The DMSO concentration in the final assay wells was 0.44%. The plates were incubated for 3 days at 37° C. with 5% CO2 and 85% humidity. The HCV replicon assay was a multiplex assay, able to assess both cytotoxicity and antireplicon activity from the same well. The CC50 assay was performed first. The media in the 384-well cell culture plate was aspirated, and the wells were washed four times with 100 μL of PBS each, using a Biotek ELX405 plate washer. A volume of 50 μL of a solution containing 400 nM calcein AM (Anaspec, Fremont, CA) in 1×PBS was added to each well of the plate with a Biotek μFlow workstation. The plate was incubated for 30 min at room temperature before the fluorescence signal (excitation 490 nm, emission 520 nm) was measured with a Perkin-Elmer Envision plate reader. The EC50 assay was performed in the same wells as the CC50 assay. The calcein-PBS solution in the 384-well cell culture plate was aspirated with a Biotek ELX405 plate washer. A volume of 20 μL of Dual-Glo luciferase buffer (Promega, Madison, WI) was added to each well of the plate with a Biotek μFlow Workstation. The plate was incubated for 10 min at room temperature. A volume of 20 μL of a solution containing a 1:100 mixture of Dual-Glo Stop & Glo substrate (Promega, Madison, WI) and Dual-Glo Stop & Glo buffer (Promega, Madison, WI) was added to each well of the plate with a Biotek μFlow Workstation. The plate was then incubated at room temperature for 10 min before the luminescence signal was measured with a Perkin-Elmer Envision Plate Reader.

[2] = test system: Respiratory syncytial virus recombinant with luciferase (RSV-Luc5) in NHBE cells; assay: NHBE RSV-Luc5 384-well assay (EC50 RSVFLUC NHBE-384, Example U); assay type: cell-based; conditions: human respiratory syncytial virus, 72 h, read-out: RSV FLuc NHBE 384 EC50 (v2) (nM) (per Ex. U)
Method in brief: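 Passage-2 NHBE cells (5,000/well) on pre-spotted compounds, 10-point 1:3 series, infected with RSV-Luc5 at MOI 1 and incubated 3 days at 37° C. Replication read by One-Glo luminescence, normalized to remdesivir (0%) and DMSO (100%); EC50 = concentration reducing replication by 50%, by non-linear regression.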

[3] = HCV replicon cells, 3 days, Dual-Glo luciferase

CCCCCCCCCCCCCCCCCCOC[C@H](COP(=O)(O)OC[C@@]1(C#N)O[C@@H](c2ccc3c(N)ncnn23)[C@H](O)[C@@H]1O)OCc1ccc(C#N)c(Cl)c1 [Compound 7, ((2R,3S,4R,5S)-5-(4-aminopyrrolo[2,1-f][1,2,4]triazin-7-yl)-2-cyano-3,4-dihydroxytetrahydrofuran-2-yl)methyl ((R)-2-((3-chloro-4-cyanobenzyl)oxy)-3-(octadecyloxy)propyl) hydrogen phosphate]
EC50 [1, 3]: 16700 nM | EC50 [2]: 36 nM

CCCCCCCCCCCCCCCCCCOC[C@H](COP(=O)(O)OC[C@@]1(C#N)O[C@@H](c2ccc3c(N)ncnn23)[C@H](O)[C@@H]1O)Oc1cccc(C#N)n1 [Compound 21, ((2R,3S,4R,5S)-5-(4-aminopyrrolo[2,1-f][1,2,4]triazin-7-yl)-2-cyano-3,4-dihydroxytetrahydrofuran-2-yl)methyl ((R)-2-((6-cyanopyridin-2-yl)oxy)-3-(octadecyloxy)propyl) hydrogen phosphate]
EC50 [1, 3]: 13300 nM | EC50 [2]: 29 nM

CCCCCCCCCCCCCCCCCCC[C@H](COP(=O)(O)OC[C@@]1(C#N)O[C@@H](c2ccc3c(N)ncnn23)[C@H](O)[C@@H]1O)OCc1ccc(-n2cncn2)c(C#N)c1 [Compound 30, ((2R,3S,4R)-5-(4-aminopyrrolo[2,1-f][1,2,4]triazin-7-yl)-2-cyano-3,4-dihydroxytetrahydrofuran-2-yl)methyl ((R)-2-((3-cyano-4-(1H-1,2,4-triazol-1-yl)benzyl)oxy)henicosyl) hydrogen phosphate]
EC50 [1]: 3990 nM | EC50 [2]: 14 nM

CCCCCCCCCCCCCCCCC[C@H](COP(=O)(O)OC[C@@]1(C#N)O[C@@H](c2ccc3c(N)ncnn23)[C@H](O)[C@@H]1O)OCc1cc(F)cc(C#N)c1 [Compound 36, ((2R,3S,4R,5S)-5-(4-aminopyrrolo[2,1-f][1,2,4]triazin-7-yl)-2-cyano-3,4-dihydroxytetrahydrofuran-2-yl)methyl ((R)-2-((3-cyano-5-fluorobenzyl)oxy)nonadecyl) hydrogen phosphate]
EC50 [1]: 26300 nM | EC50 [2]: 51 nM

CCCCCCCCCCCCCCCCCC[C@@H](COP(=O)(O)OC[C@@]1(C#N)O[C@@H](c2ccc3c(N)ncnn23)[C@H](O)[C@@H]1O)OCc1cc(F)cc(C#N)c1 [Compound 37, ((2R,3S,4R)-5-(4-aminopyrrolo[2,1-f][1,2,4]triazin-7-yl)-2-cyano-3,4-dihydroxytetrahydrofuran-2-yl)methyl ((S)-2-((3-cyano-5-fluorobenzyl)oxy)icosyl) hydrogen phosphate]
EC50 [1, 3]: 22500 nM | EC50 [2]: 82 nM

CCCCCCCCCCCCCCCCCCCC[C@H](COP(=O)(O)OC[C@@]1(C#N)O[C@@H](c2ccc3c(N)ncnn23)[C@H](O)[C@@H]1O)Oc1cccc(C#N)c1 [Compound 51, ((2R,3S,4R,5S)-5-(4-aminopyrrolo[2,1-f][1,2,4]triazin-7-yl)-2-cyano-3,4-dihydroxytetrahydrofuran-2-yl)methyl ((R)-2-(3-cyanophenoxy)docosyl) hydrogen phosphate]
EC50 [1, 3]: 14600 nM | EC50 [2]: 56 nM

CCCCCCCCCCCCCCCCCOC[C@H](COP(=O)(O)OC[C@@]1(C#N)O[C@@H](c2ccc3c(N)ncnn23)[C@H](O)[C@@H]1O)OCc1cc(F)cc(C#N)c1 [Compound 53, ((2R,3S,4R,5S)-5-(4-aminopyrrolo[2,1-f][1,2,4]triazin-7-yl)-2-cyano-3,4-dihydroxytetrahydrofuran-2-yl)methyl ((R)-2-((3-cyano-5-fluorobenzyl)oxy)-3-(heptadecyloxy)propyl) hydrogen phosphate]
EC50 [1, 3]: 15500 nM | EC50 [2]: 22 nM

CCCCCCCCCCCCCCCCCCOC[C@H](COP(=O)(O)OC[C@@]1(C#N)O[C@@H](c2ccc3c(N)ncnn23)[C@H](O)[C@@H]1O)OCc1cccc(C#N)n1 [Compound 68, ((2R,3S,4R)-5-(4-aminopyrrolo[2,1-f][1,2,4]triazin-7-yl)-2-cyano-3,4-dihydroxytetrahydrofuran-2-yl)methyl ((R)-2-((6-cyanopyridin-2-yl)methoxy)-3-(octadecyloxy)propyl) hydrogen phosphate]
EC50 [1]: 11500 nM | EC50 [2]: 9 nM
